Consider four compounds from patent US12590067B2, “Herbicidal cyclohexanedione derivatives” (SYNGENTA CROP PROTECTION AG, priority 2019, dated 2026).

Holding throughout (assay): Glasshouse herbicidal test, pre- and post-emergence, percentage damage to the plant
Holding throughout (assay type): in vivo

The subject of test [1] is Alopecurus myosuroides (ALOMY). The settings on record: 250 g/h, evaluated after 13 days; for ALOMY POST percentage damage caused to the plant (five-point scale): post-emergence; for ALOMY PRE percentage damage caused to the plant (five-point scale): pre-emergence. The method, then:
(§1) Seeds of a variety of test species are sown in standard soil in pots (Lolium perenne (LOLPE), Setaria faberi (SETFA), Alopecurus myosuroides (ALOMY), Echinochloa crus-galli (ECHCG), Avena fatua (AVEFA)). After cultivation for one day (pre-emergence) or after 8 days cultivation (post-emergence) under controlled conditions in a glasshouse (at 24/16° C., day/night; 14 hours light; 65% humidity), the plants are sprayed with an aqueous spray solution derived from the formulation of the technical active ingredient in acetone/water (50:50) solution containing 0.5% Tween 20 (polyoxyethelyene sorbitan monolaurate, CAS RN 9005-64-5). Compounds are applied at 250 g/h. The test plants are then grown in a glasshouse under controlled conditions in a glasshouse (at 24/16° C., day/night; 14 hours light; 65% humidity) and watered twice daily. After 13 days for pre and post-emergence, the test is evaluated for the percentage damage caused to the plant. The biological activities are shown in the following table on a five-point scale (5=80-100%; 4=60-79%; 3=40-59%; 2=20-39%; 1=0-19%).

The subject of the next test is Avena fatua (AVEFA). Particulars: 250 g/h, evaluated after 13 days; for AVEFA POST percentage damage caused to the plant (five-point scale): post-emergence; for AVEFA PRE percentage damage caused to the plant (five-point scale): pre-emergence. The method, then: as §1
The test system of test [2] is Echinochloa crus-galli (ECHCG). The settings on record: 250 g/h, evaluated after 13 days; for ECHCG POST percentage damage caused to the plant (five-point scale): post-emergence; for ECHCG PRE percentage damage caused to the plant (five-point scale): pre-emergence. The method, then: as §1
The subject of the next test is Lolium perenne (LOLPE). Particulars: 250 g/h, evaluated after 13 days; for LOLPE POST percentage damage caused to the plant (five-point scale): post-emergence; for LOLPE PRE percentage damage caused to the plant (five-point scale): pre-emergence. The method, then:
as §1

The test system of the next test is Setaria faberi (SETFA). The settings on record: 250 g/h, evaluated after 13 days; for SETFA POST percentage damage caused to the plant (five-point scale): post-emergence; for SETFA PRE percentage damage caused to the plant (five-point scale): pre-emergence. The method, then:
as §1

Take `CC#Cc1cc(CC)c(C2C(=O)CC3(CCN(C(C)=O)CC3)CC2=O)c(CC)c1` [Compound A48]: in test [1], the “ALOMY POST percentage damage caused to the plant (five-point scale)” value (“ALOMY POST percentage damage caused” below) is 5 (5=80-100%) and the “ALOMY PRE percentage damage caused to the plant (five-point scale)” value (from here on “ALOMY PRE percentage damage caused”) is 5 (5=80-100%). In the test on Avena fatua (AVEFA), the “AVEFA POST percentage damage caused to the plant (five-point scale)” value (from here on “AVEFA POST percentage damage caused”) is given as 5 (5=80-100%) and the “AVEFA PRE percentage damage caused to the plant (five-point scale)” value (shortened to “AVEFA PRE percentage damage caused”) was 5 (5=80-100%). For the same compound, in test [2], the “ECHCG POST percentage damage caused to the plant (five-point scale)” value (shortened to “ECHCG POST percentage damage caused”) is given as 5 (5=80-100%) and the “ECHCG PRE percentage damage caused to the plant (five-point scale)” value (“ECHCG PRE percentage damage caused” below) is 4 (4=60-79%). Further, in the test on Lolium perenne (LOLPE), the “LOLPE POST percentage damage caused to the plant (five-point scale)” value (“LOLPE POST percentage damage caused” for short) is given as 5 (5=80-100%) and the “LOLPE PRE percentage damage caused to the plant (five-point scale)” value (shortened to “LOLPE PRE percentage damage caused”) is on record as 5 (5=80-100%). Besides, in the test with Setaria faberi (SETFA), the “SETFA POST percentage damage caused to the plant (five-point scale)” value (shortened to “SETFA POST percentage damage caused”) is reported as 5 (5=80-100%) and the “SETFA PRE percentage damage caused to the plant (five-point scale)” value (“SETFA PRE percentage damage caused” below) is listed as 5 (5=80-100%).
With `CC#Cc1cc(Cl)c(C2C(=O)CC3(CCN(C(C)=O)CC3)CC2=O)c(CC)c1` [Compound A49], in test [1], the “ALOMY POST percentage damage caused” value is given as 5 (5=80-100%) and the “ALOMY PRE percentage damage caused” value is given as 5 (5=80-100%). Besides, in the test with Avena fatua (AVEFA), the “AVEFA POST percentage damage caused” value is given as 5 (5=80-100%) and the “AVEFA PRE percentage damage caused” value is 5 (5=80-100%). Also, in test [2], the “ECHCG POST percentage damage caused” value is on record as 5 (5=80-100%) and the “ECHCG PRE percentage damage caused” value was 5 (5=80-100%). In the test with Lolium perenne (LOLPE), the “LOLPE POST percentage damage caused” value is listed as 5 (5=80-100%) and the “LOLPE PRE percentage damage caused” value is 5 (5=80-100%). Besides, in the test on Setaria faberi (SETFA), the “SETFA POST percentage damage caused” value is given as 5 (5=80-100%) and the “SETFA PRE percentage damage caused” value was 5 (5=80-100%).
Take `CCc1cc(-c2ccc(C#N)cn2)cc(C)c1C1C(=O)CC2(CCN(C(=O)C3CC3)CC2)CC1=O` [Compound A51, 6-[4-[3-(cyclopropanecarbonyl)-8,10-dioxo-3-azaspiro[5.5]undecan-9-yl]-3-ethyl-5-methyl-phenyl]pyridine-3-carbonitrile]: in test [1], the “ALOMY POST percentage damage caused” value is reported as 5 (5=80-100%) and the “ALOMY PRE percentage damage caused” value is 5 (5=80-100%). Also, in the test on Avena fatua (AVEFA), the “AVEFA POST percentage damage caused” value is on record as 5 (5=80-100%) and the “AVEFA PRE percentage damage caused” value is 5 (5=80-100%). In addition, in test [2], the “ECHCG POST percentage damage caused” value is 5 (5=80-100%) and the “ECHCG PRE percentage damage caused” value is recorded as 4 (4=60-79%). In the test with Lolium perenne (LOLPE), the “LOLPE POST percentage damage caused” value is 5 (5=80-100%) and the “LOLPE PRE percentage damage caused” value is given as 5 (5=80-100%). Further, in the test on Setaria faberi (SETFA), the “SETFA POST percentage damage caused” value is given as 5 (5=80-100%) and the “SETFA PRE percentage damage caused” value is recorded as 5 (5=80-100%).
`CCc1cc(-c2ccc(C#N)cn2)cc(CC)c1C1C(=O)CC2(CCN(C(=O)C3CC3)CC2)CC1=O` [Compound A52]: in test [1], the “ALOMY POST percentage damage caused” value is on record as 5 (5=80-100%) and the “ALOMY PRE percentage damage caused” value is reported as 5 (5=80-100%). Besides, in the test on Avena fatua (AVEFA), the “AVEFA POST percentage damage caused” value was 5 (5=80-100%) and the “AVEFA PRE percentage damage caused” value was 5 (5=80-100%). For the same compound, in test [2], the “ECHCG POST percentage damage caused” value is given as 5 (5=80-100%) and the “ECHCG PRE percentage damage caused” value is listed as 5 (5=80-100%). In the test on Lolium perenne (LOLPE), the “LOLPE POST percentage damage caused” value is reported as 5 (5=80-100%) and the “LOLPE PRE percentage damage caused” value is 5 (5=80-100%). In addition, in the test on Setaria faberi (SETFA), the “SETFA POST percentage damage caused” value is given as 5 (5=80-100%) and the “SETFA PRE percentage damage caused” value is 5 (5=80-100%).
